Data set [1] deals with human carcinoma xenografts. In words: Human carcinoma xenografts in nude mice (all models). The class given is in vivo. As to conditions: doses equivalent to hu3S193-AcBut-CM; earlier experiments, data not shown. On the procedure: (§1) The antitumor efficacy of calicheamicin conjugated to anti-Lewis Y antibodies was evaluated against human carcinoma xenografts established subcutaneously (SC) in nude mice. The evaluated xenografts included carcinomas that had either high or low expression of the Lewis Y antigen and carcinomas from breast, colon, lung, and prostate. Mice bearing solid tumors with an average mass of 150 to 300 mg were randomized to various treatment groups.
(§2) The efficacy in vivo of CMD-193 was tested on subcutaneous xenografts from gastric (N87), lung (L2987), cervical/epidermoid (A431/Le^y) and colon (LS174T and LOVO) carcinomas. Unless indicated otherwise, all conjugates and controls were injected intraperitoneally according to Q4DX3 schedule. To monitor for tumor targeting due to the carrier function of immunoglobulin, CMA was used as a negative control. Based on the studies described below, a dosage of 15 mg/kg of CMD-193 (equivalent to a conjugated antibody protein dosage in the range of 562 to 803 mg/m^2) was considered to be the minimum efficacious dose (MED).

Data set [2] has as its system HL-60 promyelocytic leukemia cells. The conditions noted are these: HL-60 leukemia cells.
The subject of data set [3] is L2987 lung carcinoma xenografts. In words: L2987 lung carcinoma xenografts. The class given is in vivo, nude mice. As to conditions: 0.375 to 3 μg/dose/mouse, Q4DX3 i.p. On the procedure: as §2
Mice bearing L2987 xenografts of 100 mm^3 were treated with a control conjugate (CMA), PBS or CMD. Mice in each group received three doses i.p. The amount of each dose in calicheamicin equivalents is specified in the legends. Conjugates and controls were injected at day 1, 5 and 9. […] The error bars represent the standard deviation of the average tumor volume at each time point. The number of mice (expressed as a percentage) with a tumor size smaller than the initial tumor average of each group was plotted as a function of the observation period in FIG. 12. Treatment with CMA (FIG. 12A) or CMD (FIG. 12B) is compared to treatment with vehicle control (PBS).
For the experiment shown in FIG. 13, 10 mice received L2987 xenografts. […]

Data set [4] has as its system LS174T colon carcinoma xenografts. As to the kind of experiment: LS174T colon carcinoma xenografts. The class given is in vivo, nude mice. On the procedure:
as §2
Mice bearing LS174T xenografts of 150 mm^3 were treated with a control conjugate (CMA), PBS or CMD. Mice in each group received three doses i.p. The amount of each dose in calicheamicin equivalents is specified in the legends. Conjugates and controls were injected at day 1, 5 and 9. LS174T tumors proliferated so fast that in the control group all the mice had to be killed within a 51-day period because of the large tumor burden (>2.5 cm^3). In the group treated with 4 ug cal.eq. CMD (Q4DX3), 3 out of five mice were killed within 44 days because of a large tumor burden (1/3) or because of necrosis of the tumor (2/3). Of the other two mice one remained tumor-free for 125 days while the other one had developed a small tumor. […] CMD (Q4DX3) or 4 ug cal.eq CMA (Q4DX3). […]

For data set [5], the system named is N87 gastric carcinoma xenografts. In words: N87 gastric carcinoma xenografts. As to conditions: 150 mm^3 xenografts. The class given is in vivo, nude mice. On the procedure: as §1
(§3) The efficacy in vivo of hu3S193-AcBut-CM was tested on subcutaneous xenografts from gastric (N87, FIG. 3), prostate (LNCaP, FIG. 4) and colon (LOVO, FIGS. 5 and 6) carcinomas. Subcutaneous tumors of N87, LOVO and LNCaP were grown in athymic nude mice (Charles River, Wilmington, Mass.). Female mice of 1.5 to 3 months old were injected with respectively 5×10^6 N87 or 10^7 LOVO cells per mouse. LNCaP cells were injected in male nude mice that were 3 months old. To grow tumors, N87 and LNCaP cells had to be mixed (1:1, vol/vol) with […]® (Collaborative Biomedical Products, Belford, Mass.) prior to injection. Two perpendicular diameters of the tumor were measured at least once a week by means of calipers. The tumor volume was calculated according to the formula of Attia & Weiss: A^2×B×0.4.
Unless indicated otherwise, 3 doses of each conjugate and control were given intraperitoneally with an interval of 4 days (Q4Dx3). […]

Data set [6] concerns MX1 breast carcinoma xenografts. In words: MX1 breast carcinoma xenografts. It counts as in vivo, nude mice. As to conditions: MX1, at least 35 days. The method, then: The effect of CMD-193 on the growth of established xenografts of carcinomas that had low expression of the Lewis Y antigen was also examined in MX1 breast carcinoma. CMA-676 was used as a nonbinding control conjugate. Nude mice explanted with MX1 breast carcinoma were treated with various dosages of CMD-193 (40 to 240 mg/kg) or CMA-676 (a negative control). Tumor growth was recorded for at least 35 days. In contrast, CMA-676 was effective only at the highest dosages (160 mg/kg) tested.

Data set [7] concerns LOVO colon carcinoma xenografts. As to the kind of experiment: LOVO colon carcinoma xenografts. It counts as in vivo, nude mice. As to conditions: for tumor inhibition of LOVO xenografts: hu3S193-AcBut-CM experiments (FIGS. 5, 6). On the procedure:
as §3
Unless indicated otherwise, 3 doses of each conjugate and control were given intraperitoneally with an interval of 4 days (Q4Dx3). In vivo, hu3S193-AcBut-CM inhibited tumor growth in these three separate models. Hu3S193-AcBut-CM cured mice from gastric carcinoma xenografts (N87) having high expression of Lewis Y antigen (FIG. 3). […] In the LOVO model, the efficacy of hu3S193-AcBut-CM was improved by increasing the amount of the conjugate (FIG. 5).
Mice bearing LOVO xenografts of 100 mm^3 were treated with control conjugates (RITUXAN-AcBut-CM, FIG. 5A), PBS (FIGS. 5A and 5B), hu3S193 (FIG. 5B) or hu3S193-AcBut-CM (FIG. 5B). Except for the group treated with Hu3S193-AcBut-CM at 4 μg/dose, mice in each group received three doses i.p. The amount of each dose in calicheamicin equivalents is specified in the legend. Conjugates and controls were injected at day 1, 5 and 9. The groups were designated as follows: hu3S193-AcBut-CM, received an additional regimen of three doses at day 43, 47 and 51. The number of mice per group (n) is reported in C. Differences in tumor size at day 30 were probed for statistical significance by a 2-tailed Students t-test.
Mice bearing LOVO xenografts of 100 mm^3 were treated with control conjugates: RITUXAN-AcBut-CM and CMA (FIG. 6A), PBS or hu3S193-AcBut-CM (FIG. 6B). Mice in each group received three or four doses i.p. The amount of each dose in calicheamicin equivalents is specified in the legend. Conjugates and controls were injected at day 1, 5 and 9. The group designated: hu3S193-AcBut-CM*, received an additional dose at day 13. The number of mice per group equals n and p-values of a 2-tailed Students t-test were determined.
Mice bearing LOVO xenografts were tested to investigate the potential benefits of regimens different from 4 μg cal.eq./dose/mouse at Q4DX3. Mice bearing LOVO xenografts of approximately 100 mm^3 were treated with PBS, G193 or various regimens of a control conjugate CMA or CMD. The amount of each dose in calicheamicin equivalents is specified in the legends. The LOVO-model was chosen for this type of experiment because of the marginal efficacy seen with 4 μg cal.eq. at Q4DX3.

As to `CCN(C(C)=O)[C@H]1CO[C@@H](O[C@H]2[C@H](O[C@H]3C#C/C=C\C#C[C@]4(O)CC(=O)C(NC(=O)OC)=C3/C4=C\CSSC(C)(C)CC(=O)NN)O[C@H](C)[C@@H](NO[C@H]3C[C@H](O)[C@H](SC(=O)c4c(C)c(I)c(O[C@@H]5O[C@@H](C)[C@H](O)[C@@H](OC)[C@H]5O)c(OC)c4OC)[C@@H](C)O3)[C@@H]2O)C[C@@H]1OC` [CM, N-acetyl gamma calicheamicin dimethyl hydrazide], the “tumor inhibition by free CM” value in data set [1] is “never inhibited”. Besides, the metabolites produced entry in data set [2] was “Several metabolites, including NAc-epsilon calicheamicin and its isomer”. The major biotransformation pathways result (cytosol) is “formation of NAc-epsilon calicheamicin and it's derivatives”. Also, the metabolites after incubation result (human liver microsomes and cytosol) is on record as “Many metabolites were found”. Further, where the note is “microsomes”, the biotransformation pathways entry is “hydroxylation and demethylation”.
For “CMA-676: calicheamicin conjugate of an anti-CD33 antibody, used as control conjugate”, in data set [3], the “growth of L2987 xenografts” value was “significant growth inhibitory effect”. Moreover, the results for the cures entry in data set [4] (2 ug cal.eq. Q4DX3) and in data set [4] (4 ug cal.eq. Q4DX3) were “one out of the five” and “No cures”, respectively. For the same molecule, the “growth inhibition versus hu3S193-AcBut-CM or CMD at equivalent doses” value in data set [5] is reported as “inhibited growth significantly less”. In addition, in data set [6], the “lowest dosage with significant growth inhibition” value came out at 160 mg/kg. Further, in data set [7] (CMD experiment (FIG. 18)), the “efficacy on LOVO xenografts” value is listed as “lack of efficacy”. Also, in data set [7], the “tumor inhibition of LOVO xenografts” value is reported as “negligible tumor inhibition”.
For “RITUXAN-AcBut-CM: calicheamicin-conjugate of RITUXAN (anti-CD20), control conjugate”, the “period of statistically significant difference in tumor size from PBS” value in data set [7] (2 μg cal.eq. per mouse Q4Dx3) and in data set [7] (4 μg cal.eq. per mouse Q4Dx3) was 16 days in each case. The “tumor inhibition of LOVO xenografts” value in data set [7] is listed as “negligible tumor inhibition”.

The record behind these values is patent publication US20090105461A1, “Calicheamicin conjugates” (priority 2004, published 2009).
